Results from patent US10273453B2, “Method for stem cell differentiation in vivo by delivery of morphogenes with mesoporous silica and corresponding pharmaceutical active ingredients” (Nanologica AB, priority 2010, dated 2019).

Tested on: bNCSCs
Test: in vitro differentiation assay of bNCSCs
Assay type: cell-based, mouse
Conditions: bNCSC cultures
Procedure: bNCSCs were isolated in a semiclonal fashion from EGFP embryos on embryonic day (E)11, as described previously (Hjerling-Leffler J, Marmigére F, Heglind M, et al. The boundary cap: a source of neural crest stem cells that generate multiple sensory neuron subtypes. Development 2005; 132:2623-32). Briefly, the DRGs along with boundary caps were mechanically separated from the isolated spinal cord and mechano-enzymatically dissociated using Collagenase/Dispase (1 mg/ml) and DNase (0.5 mg/ml) for 30 minutes at room temperature. Cells were plated at 0.5-1×10^5 cells/cm^2 in N2 medium containing B27 (Gibco, Grand Island, N.Y., www.invitrogen.com) as well as EGF and basic fibroblast growth factor (R&D Systems, Minneapolis, www.rndsystems.com; 20 ng/ml, respectively). […]
The AMS were added to the cultures and the time-window for their presence before dissolving in the culture medium was established. We also analyzed their contact with the stem cells. […] After staining 10 photographs were taken from each slide and the ratios of neurons and glial cells were calculated in all types of experiments. We also calculated the neurite length per cell as a measure of the level of neuronal differentiation (Kozlova E N. Differentiation and migration of astrocytes in the spinal cord following dorsal root injury in the adult rat. Eur J Neurosci 2003; 17:782-90).

CC1=C(/C=C/C(C)=C/C=C/C(C)=C/C(=O)O)C(C)(C)CCC1 [RA, retinoic acid]
differentiation of neurons based on neurite lengths, increase compared to non-treated neurospheres: up to 37% | neuron/glia ratio, increase compared to neurospheres-alone: 3.4 times
